Measurements from article PMC10041525, “New Dual Inhibitors of Bacterial Topoisomerases with Broad-Spectrum Antibacterial Activity and In Vivo Efficacy against Vancomycin-Intermediate Staphylococcus aureus” (Journal of Medicinal Chemistry, 2023).
Values after ≈ are worked out from the molar mass of the structure shown. Read-outs that look alike come from different tables or passages of the source.

Tests used:
[1] = test system: 100 A. baumannii strains (50 MDR, 50 non-MDR); assay: MIC broth microdilution at IHMA Europe, panel of 100 strains; type: cell-based; settings: for MIC / MIC50 / MIC90: Acinetobacter baumannii; for MIC50: read-out: MIC 50; for MIC90: read-out: MIC 90
P. aeruginosa ATCC 27853 = assay: IHMA QC MIC; type: cell-based

`C[C@@H](O)[C@H]1C(=O)N2C(C(=O)O)=C(S[C@@H]3CN[C@H](C(=O)N(C)C)C3)[C@H](C)[C@H]12` [Meropenem, meropenem] gave an MIC ([1]; A. baumannii IHMA 2157614, Australia 2020, Non-MDR, read-out: MIC) of 0.25 µg/mL (≈ 0.652 µM), an MIC ([1]; A. baumannii IHMA 2177232, Lithuania 2020, MDR, read-out: MIC) of over 16 µg/mL and an MIC ([1]; A. baumannii IHMA 2177489, Lithuania 2020, MDR, read-out: MIC) of over 16 µg/mL. The MIC ([1]; A. baumannii IHMA 2178574, Ukraine 2020, Non-MDR, read-out: MIC) was at most 0.06 µg/mL, the MIC ([1]; A. baumannii IHMA 2180134, Malaysia 2020, Non-MDR, read-out: MIC) was 0.25 µg/mL (≈ 0.652 µM) and the MIC ([1]; A. baumannii IHMA 2180142, Malaysia 2020, MDR, read-out: MIC) was over 16 µg/mL. For the same molecule, the MIC ([1]; A. baumannii IHMA 2181370, Morocco 2020, MDR, read-out: MIC) was over 16 µg/mL, the MIC ([1]; A. baumannii IHMA 2183729, Argentina 2020, MDR, read-out: MIC) was over 16 µg/mL and the MIC ([1]; A. baumannii IHMA 2183849, Argentina 2020, Non-MDR, read-out: MIC) was 0.12 µg/mL (≈ 0.313 µM). It also gave an MIC ([1]; A. baumannii IHMA 2184382, Japan 2020, Non-MDR, read-out: MIC) of 0.12 µg/mL (≈ 0.313 µM), an MIC ([1]; A. baumannii IHMA 2193375, Venezuela 2020, MDR, read-out: MIC) of over 16 µg/mL and an MIC ([1]; A. baumannii IHMA 2193485, Venezuela 2020, Non-MDR, read-out: MIC) of 0.12 µg/mL (≈ 0.313 µM). The MIC ([1]; A. baumannii IHMA 2193607, Venezuela 2020, MDR, read-out: MIC) was over 16 µg/mL, the MIC ([1]; A. baumannii IHMA 2195460, Italy 2020, MDR, read-out: MIC) was over 16 µg/mL and the MIC ([1]; A. baumannii IHMA 2196914, South Africa 2020, MDR, read-out: MIC) was over 16 µg/mL. For the same molecule, the MIC ([1]; A. baumannii IHMA 2196959, South Africa 2020, MDR, read-out: MIC) was over 16 µg/mL, the MIC ([1]; A. baumannii IHMA 2203763, Spain 2020, MDR, read-out: MIC) was over 16 µg/mL and the MIC ([1]; A. baumannii IHMA 2205144, Korea, South 2020, MDR, read-out: MIC) was 16 µg/mL (≈ 41.7 µM). For the same molecule, the MIC ([1]; A. baumannii IHMA 2206459, Taiwan 2020, MDR, read-out: MIC) was over 16 µg/mL, the MIC ([1]; A. baumannii IHMA 2206507, Taiwan 2020, Non-MDR, read-out: MIC) was 0.12 µg/mL (≈ 0.313 µM) and the MIC ([1]; A. baumannii IHMA 2212575, Hungary 2020, Non-MDR, read-out: MIC) was 0.5 µg/mL (≈ 1.3 µM). It also gave an MIC ([1]; A. baumannii IHMA 2215307, Hong Kong 2020, Non-MDR, read-out: MIC) of 0.25 µg/mL (≈ 0.652 µM), an MIC ([1]; A. baumannii IHMA 2216586, Taiwan 2020, MDR, read-out: MIC) of over 16 µg/mL and an MIC ([1]; A. baumannii IHMA 2223200, Colombia 2020, Non-MDR, read-out: MIC) of 0.12 µg/mL (≈ 0.313 µM). The MIC ([1]; A. baumannii IHMA 2224017, Panama 2020, MDR, read-out: MIC) was over 16 µg/mL, the MIC ([1]; A. baumannii IHMA 2224303, Panama 2020, Non-MDR, read-out: MIC) was 1 µg/mL (≈ 2.61 µM) and the MIC ([1]; A. baumannii IHMA 2231797, Greece 2020, MDR, read-out: MIC) was over 16 µg/mL. It also gave an MIC ([1]; A. baumannii IHMA 2233099, Guatemala 2020, MDR, read-out: MIC) of over 16 µg/mL, an MIC ([1]; A. baumannii IHMA 2233430, Kazakhstan 2020, MDR, read-out: MIC) of over 16 µg/mL and an MIC ([1]; A. baumannii IHMA 2233548, Kazakhstan 2020, Non-MDR, read-out: MIC) of 0.25 µg/mL (≈ 0.652 µM). It also gave an MIC ([1]; A. baumannii IHMA 2238964, Thailand 2020, MDR, read-out: MIC) of over 16 µg/mL, an MIC ([1]; A. baumannii IHMA 2239052, Thailand 2020, Non-MDR, read-out: MIC) of 0.12 µg/mL (≈ 0.313 µM) and an MIC ([1]; A. baumannii IHMA 2261047, Belgium 2020, MDR, read-out: MIC) of over 16 µg/mL. It also gave an MIC ([1]; A. baumannii IHMA 2261633, Canada 2020, Non-MDR, read-out: MIC) of 0.12 µg/mL (≈ 0.313 µM), an MIC ([1]; A. baumannii IHMA 2274234, South Africa 2020, MDR, read-out: MIC) of over 16 µg/mL and an MIC ([1]; A. baumannii IHMA 2274364, South Africa 2020, MDR, read-out: MIC) of over 16 µg/mL. The MIC ([1]; A. baumannii IHMA 2275237, Chile 2020, Non-MDR, read-out: MIC) was 0.25 µg/mL (≈ 0.652 µM), the MIC ([1]; A. baumannii IHMA 2275751, Jordan 2020, MDR, read-out: MIC) was over 16 µg/mL and the MIC ([1]; A. baumannii IHMA 2316205, United States 2020, MDR, read-out: MIC) was over 16 µg/mL. It also gave an MIC ([1]; MDR n = 50, read-out: MAX (maximum MIC; all strains inhibited)) of over 16 µg/mL, an MIC50 ([1]; MDR n = 50) of over 16 µg/mL and an MIC90 ([1]; MDR n = 50) of over 16 µg/mL. It also gave an MIC ([1]; MDR n = 50, read-out: MIN (minimum MIC)) of 16 µg/mL (≈ 41.7 µM), an MIC ([1]; all isolates n = 100, read-out: MAX (maximum MIC; all strains inhibited)) of over 16 µg/mL and an MIC50 ([1]; all isolates n = 100) of 1 µg/mL (≈ 2.61 µM). It also gave an MIC90 ([1]; all isolates n = 100) of over 16 µg/mL, an MIC ([1]; all isolates n = 100, read-out: MIN (minimum MIC)) of at most 0.06 µg/mL and an MIC ([1]; non-MDR n = 50, read-out: MAX (maximum MIC)) of 1 µg/mL (≈ 2.61 µM). For the same molecule, the MIC50 ([1]; non-MDR n = 50) was 0.25 µg/mL (≈ 0.652 µM), the MIC90 ([1]; non-MDR n = 50) was 0.25 µg/mL (≈ 0.652 µM) and the MIC ([1]; non-MDR n = 50, read-out: MIN (minimum MIC)) was at most 0.06 µg/mL. The “Percentage I” value ([1]; MDR n = 50) was 0%, the “Percentage R” value ([1]; MDR n = 50) was 100% and the “Percentage S” value ([1]; MDR n = 50) was 0%. The “Percentage I” value ([1]; all n = 100, CLSI breakpoints) was 0%, the “Percentage R” value ([1]; all n = 100, CLSI breakpoints) was 50% and the “Percentage S” value ([1]; all n = 100, CLSI breakpoints) was 50%. For the same molecule, the “Percentage I” value ([1]; non-MDR n = 50) was 0%, the “Percentage R” value ([1]; non-MDR n = 50) was 0% and the “Percentage S” value ([1]; non-MDR n = 50) was 100%. The “MIC (QC, repeated tests)” value (P. aeruginosa ATCC 27853) was 1 µg/mL (≈ 2.61 µM) and the MIC (P. aeruginosa ATCC 27853; Pseudomonas aeruginosa, ATCC27853, read-out: MIC (QC, repeated tests)) was 0.5 µg/mL (≈ 1.3 µM).
